Measurements published in ChEMBL document CHEMBL4842324, “PdCl2-catalyzed synthesis of a new class of isocoumarin derivatives containing aminosulfonyl / aminocarboxamide moiety: First identification of a isocoumarin based PDE4 inhibitor” (Eur J Med Chem, 2021).
Activity calls are given as the source filed them. The rule behind the calls is not given here.

Tests used:
[1] = target: T1, 3',5'-cyclic-AMP phosphodiesterase 4B (Homo sapiens, UniProt Q07343); assay: Inhibition of PDE4B (unknown origin) using [3H]cAMP as substrate at 10 uM incubated for 30 mins by scintillation proximity assay relative to control
[2] = target: T1, 3',5'-cyclic-AMP phosphodiesterase 4B; assay: Inhibition of PDE4B (unknown origin) using [3H]cAMP as substrate incubated for 30 mins by scintillation proximity assay
Rattus norvegicus [3] = assay: Antiinflammatory activity against complete Freund's adjuvant induced rat model of arthritis assessed as decrease in pathological changes at 30 mg/kg, ip measured on day 21 by H and E staining based histopathological analysis; type: functional, organism-based; settings: time 21.0 day
[4] = Hepatotoxicity in zebrafish embryos assessed as liver degeneration at 1 to 100 uM; type: toxicity, Danio rerio; settings: in vivo, dose 1-100 µM
[5] = target: cGMP-inhibited 3',5'-cyclic phosphodiesterase 3A (Homo sapiens) (UniProt Q14432); assay: Inhibition of PDE3A (unknown origin) at 10 uM relative to control
Rattus norvegicus [6] = assay: Antiinflammatory activity against complete Freund's adjuvant induced rat model of arthritis assessed as decrease in TNF-alpha expression at 10 to 30 mg/kg, ip by immunohistochemical staining based assay; type: functional, organism-based; settings: dose 10-30 mg/kg
Homo sapiens = species: Homo sapiens; assay: Selectivity ratio of IC50 for PDE4D (unknown origin) to IC50 for PDE4B (unknown origin)
[7] = target: cGMP-dependent 3',5'-cyclic phosphodiesterase (Homo sapiens) (UniProt O00408); assay: Inhibition of PDE2A1 (unknown origin) at 10 uM relative to control
[8] = target: Tumor necrosis factor (Homo sapiens) (UniProt P01375); assay: Inhibition of TNF-alpha (unknown origin) at 0.3 uM relative to control
[9] = target: High affinity cAMP-specific and IBMX-insensitive 3',5'-cyclic phosphodiesterase 8A (Homo sapiens) (UniProt O60658); assay: Inhibition of PDE8A1 (unknown origin) at 10 uM relative to control
Rattus norvegicus [10] = assay: Antiinflammatory activity against complete Freund's adjuvant induced rat model of arthritis assessed as improvement in intestinal absorption at 30 mg/kg, ip measured on day 21; type: functional, organism-based; settings: time 21.0 day
[11] = target: cAMP and cAMP-inhibited cGMP 3',5'-cyclic phosphodiesterase 10A (Homo sapiens) (UniProt Q9Y233); assay: Inhibition of PDE10A2 (unknown origin) at 10 uM relative to control
RAW264.7 = assay: Cytotoxicity against mouse RAW264.7 cells assessed as reduction in cell viability measured after 48 hrs by MTT assay; type: cell-based; settings: RAW264.7, 48 h
Rattus norvegicus [12] = assay: Antiinflammatory activity against complete Freund's adjuvant induced rat model of arthritis assessed as reduction in joint degeneration changes at 30 mg/kg, ip measured on day 21 by H and E staining based histopathological analysis; type: functional, organism-based; settings: time 21.0 day
[13] = target: cAMP and cAMP-inhibited cGMP 3',5'-cyclic phosphodiesterase 10A (Homo sapiens) (UniProt Q9Y233); assay: Inhibition of PDE10A1 (unknown origin) at 10 uM relative to control
[14] = target: Cone cGMP-specific 3',5'-cyclic phosphodiesterase subunit alpha' (Homo sapiens) (UniProt P51160); assay: Inhibition of PDE6C (unknown origin) at 10 uM relative to control
[15] = target: Dual specificity calcium/calmodulin-dependent 3',5'-cyclic nucleotide phosphodiesterase 1B (Homo sapiens) (UniProt Q01064); assay: Inhibition of PDE1B (unknown origin) at 10 uM relative to control
[16] = Cardiac toxicity in zebrafish embryos assessed as effect on heart rate at 1 to 100 uM; set-up: species or system Danio rerio; settings: in vivo, dose 1-100 µM
[17] = Toxicity in zebrafish embryos assessed as teratogenicity at 1 to 100 uM; set-up: species or system Danio rerio; settings: in vivo, dose 1-100 µM
Rattus norvegicus [18] = assay: Antiinflammatory activity against complete Freund's adjuvant induced ip dosed rat model of arthritis assessed as reduction in paw swelling measured on day 21 by macroscopic analysis; type: functional, organism-based; settings: time 21.0 day
[19] = target: Dual specificity calcium/calmodulin-dependent 3',5'-cyclic nucleotide phosphodiesterase 1A (Homo sapiens) (UniProt P54750); assay: Inhibition of PDE1A1 (unknown origin) at 10 uM relative to control
[20] = target: cGMP-inhibited 3',5'-cyclic phosphodiesterase 3B (Homo sapiens) (UniProt Q13370); assay: Inhibition of PDE3B (unknown origin) at 10 uM relative to control
[21] = target: Dual 3',5'-cyclic-AMP and -GMP phosphodiesterase 11A (Homo sapiens) (UniProt Q9HCR9); assay: Inhibition of PDE11A4 (unknown origin) at 10 uM relative to control
[22] = Hepatotoxicity in zebrafish embryos assessed as effect on liver size at 1 to 100 uM; type: toxicity, Danio rerio; settings: in vivo, dose 1-100 µM
[23] = target: High affinity cGMP-specific 3',5'-cyclic phosphodiesterase 9A (Homo sapiens) (UniProt O76083); assay: Inhibition of PDE9A2 (unknown origin) at 10 uM relative to control
[24] = target: High affinity 3',5'-cyclic-AMP phosphodiesterase 7A (Homo sapiens) (UniProt Q13946); assay: Inhibition of PDE7A1 (unknown origin) at 10 uM relative to control
Rattus norvegicus [25] = assay: Antiinflammatory activity against complete Freund's adjuvant induced rat model of arthritis assessed as reduction in paw volume at 30 mg/kg, ip measured on day 21 by macroscopic analysis; type: functional, organism-based; settings: time 21.0 day
[26] = target: cGMP-specific 3',5'-cyclic phosphodiesterase (Homo sapiens) (UniProt O76074); assay: Inhibition of PDE5A1 (unknown origin) at 10 uM relative to control
[27] = target: Tumor necrosis factor (Homo sapiens) (UniProt P01375); assay: Inhibition of TNF-alpha (unknown origin) at 1 uM relative to control
[28] = target: Dual specificity calcium/calmodulin-dependent 3',5'-cyclic nucleotide phosphodiesterase 1C (Homo sapiens) (UniProt Q14123); assay: Inhibition of PDE1C (unknown origin) at 10 uM relative to control
[29] = target: 3',5'-cyclic-AMP phosphodiesterase 4D (Homo sapiens, UniProt Q08499); assay: Inhibition of PDE4D (unknown origin)
Rattus norvegicus [30] = assay: Antiinflammatory activity against complete Freund's adjuvant induced rat model of arthritis assessed as effect on IL-6 expression at 10 to 30 mg/kg, ip by immunohistochemical staining based assay; type: functional, organism-based; settings: dose 10-30 mg/kg
[31] = target: Tumor necrosis factor (Homo sapiens) (UniProt P01375); assay: Inhibition of TNF-alpha (unknown origin) at 10 uM relative to control
[32] = Toxicity in zebrafish embryos assessed as induction of apoptosis at 1 to 100 uM; set-up: species or system Danio rerio; settings: dose 1-100 µM
[33] = target: 3',5'-cyclic-AMP phosphodiesterase 7B (Homo sapiens) (UniProt Q9NP56); assay: Inhibition of PDE7B (unknown origin) at 10 uM relative to control
[34] = target: Tumor necrosis factor (Homo sapiens) (UniProt P01375); assay: Inhibition of TNF-alpha (unknown origin) at 3 uM relative to control
[35] = target: Tumor necrosis factor (Homo sapiens) (UniProt P01375); assay: Inhibition of TNF-alpha (unknown origin) at 0.1 uM relative to control
Rattus norvegicus [36] = assay: Antiinflammatory activity against complete Freund's adjuvant induced rat model of arthritis assessed as reduction in joint structure deformity at 1 mg/kg, ip measured on day 21 by radiographic analysis; type: functional, organism-based; settings: time 21.0 day
Rattus norvegicus [37] = assay: Antiinflammatory activity against complete Freund's adjuvant induced rat model of arthritis assessed as reduction in paw volume at 1 mg/kg, po administered once daily measured on day 21 by macroscopic analysis; type: functional, organism-based; settings: time 21.0 day

T1 sequence (Q07343 whole entry): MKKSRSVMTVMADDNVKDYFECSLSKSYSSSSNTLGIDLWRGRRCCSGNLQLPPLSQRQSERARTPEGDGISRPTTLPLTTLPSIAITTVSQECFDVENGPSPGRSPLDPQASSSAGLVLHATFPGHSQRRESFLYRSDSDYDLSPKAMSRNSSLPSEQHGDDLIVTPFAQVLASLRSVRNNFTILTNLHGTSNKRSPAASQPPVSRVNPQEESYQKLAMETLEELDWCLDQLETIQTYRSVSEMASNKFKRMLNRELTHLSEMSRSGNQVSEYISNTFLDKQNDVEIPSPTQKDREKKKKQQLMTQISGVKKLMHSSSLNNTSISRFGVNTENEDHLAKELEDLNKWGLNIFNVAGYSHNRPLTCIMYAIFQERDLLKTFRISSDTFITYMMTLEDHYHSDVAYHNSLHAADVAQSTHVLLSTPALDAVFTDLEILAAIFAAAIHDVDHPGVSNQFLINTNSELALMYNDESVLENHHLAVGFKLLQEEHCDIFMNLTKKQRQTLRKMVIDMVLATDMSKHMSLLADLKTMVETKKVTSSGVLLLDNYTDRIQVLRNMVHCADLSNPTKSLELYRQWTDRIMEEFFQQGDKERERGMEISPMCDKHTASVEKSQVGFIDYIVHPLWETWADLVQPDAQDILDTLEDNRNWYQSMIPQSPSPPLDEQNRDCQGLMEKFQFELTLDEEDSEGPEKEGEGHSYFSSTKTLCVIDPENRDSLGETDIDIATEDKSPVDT
Sequence of Tumor necrosis factor (Homo sapiens) (P01375 whole entry): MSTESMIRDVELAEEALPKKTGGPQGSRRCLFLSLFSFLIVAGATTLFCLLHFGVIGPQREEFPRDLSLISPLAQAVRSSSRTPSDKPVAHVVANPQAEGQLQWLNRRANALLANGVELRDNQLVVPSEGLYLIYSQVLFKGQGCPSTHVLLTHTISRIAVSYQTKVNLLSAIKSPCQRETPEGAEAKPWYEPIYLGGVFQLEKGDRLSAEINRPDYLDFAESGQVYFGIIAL
Sequence of cAMP and cAMP-inhibited cGMP 3',5'-cyclic phosphodiesterase 10A (Homo sapiens) (Q9Y233 whole entry): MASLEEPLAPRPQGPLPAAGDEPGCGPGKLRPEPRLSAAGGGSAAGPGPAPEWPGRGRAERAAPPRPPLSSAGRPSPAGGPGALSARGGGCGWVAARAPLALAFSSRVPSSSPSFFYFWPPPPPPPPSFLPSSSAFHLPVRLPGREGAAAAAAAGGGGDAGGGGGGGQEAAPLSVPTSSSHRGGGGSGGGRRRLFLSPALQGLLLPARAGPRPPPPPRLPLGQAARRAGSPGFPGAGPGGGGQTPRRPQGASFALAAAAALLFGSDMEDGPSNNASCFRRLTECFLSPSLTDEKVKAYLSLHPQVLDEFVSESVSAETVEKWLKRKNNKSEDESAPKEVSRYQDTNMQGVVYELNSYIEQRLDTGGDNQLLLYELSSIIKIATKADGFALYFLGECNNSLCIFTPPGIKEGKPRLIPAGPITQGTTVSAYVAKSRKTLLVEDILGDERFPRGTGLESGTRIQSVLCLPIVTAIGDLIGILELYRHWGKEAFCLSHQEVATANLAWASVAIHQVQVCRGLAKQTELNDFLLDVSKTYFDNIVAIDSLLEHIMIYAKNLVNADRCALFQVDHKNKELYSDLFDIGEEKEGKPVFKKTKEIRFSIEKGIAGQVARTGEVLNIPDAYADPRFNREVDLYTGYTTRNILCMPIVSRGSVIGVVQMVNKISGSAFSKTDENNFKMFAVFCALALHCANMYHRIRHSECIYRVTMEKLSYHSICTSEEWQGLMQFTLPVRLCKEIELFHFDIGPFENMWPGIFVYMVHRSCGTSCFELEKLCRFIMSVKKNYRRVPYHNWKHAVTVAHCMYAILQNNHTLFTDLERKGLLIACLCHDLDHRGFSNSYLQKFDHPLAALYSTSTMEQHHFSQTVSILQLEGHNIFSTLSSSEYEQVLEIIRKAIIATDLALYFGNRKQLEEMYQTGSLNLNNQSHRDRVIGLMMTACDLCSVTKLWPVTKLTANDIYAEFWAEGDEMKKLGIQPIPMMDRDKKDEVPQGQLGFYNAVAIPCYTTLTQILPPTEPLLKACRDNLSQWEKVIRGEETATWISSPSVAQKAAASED
Sequence of 3',5'-cyclic-AMP phosphodiesterase 4D (Q08499 whole entry): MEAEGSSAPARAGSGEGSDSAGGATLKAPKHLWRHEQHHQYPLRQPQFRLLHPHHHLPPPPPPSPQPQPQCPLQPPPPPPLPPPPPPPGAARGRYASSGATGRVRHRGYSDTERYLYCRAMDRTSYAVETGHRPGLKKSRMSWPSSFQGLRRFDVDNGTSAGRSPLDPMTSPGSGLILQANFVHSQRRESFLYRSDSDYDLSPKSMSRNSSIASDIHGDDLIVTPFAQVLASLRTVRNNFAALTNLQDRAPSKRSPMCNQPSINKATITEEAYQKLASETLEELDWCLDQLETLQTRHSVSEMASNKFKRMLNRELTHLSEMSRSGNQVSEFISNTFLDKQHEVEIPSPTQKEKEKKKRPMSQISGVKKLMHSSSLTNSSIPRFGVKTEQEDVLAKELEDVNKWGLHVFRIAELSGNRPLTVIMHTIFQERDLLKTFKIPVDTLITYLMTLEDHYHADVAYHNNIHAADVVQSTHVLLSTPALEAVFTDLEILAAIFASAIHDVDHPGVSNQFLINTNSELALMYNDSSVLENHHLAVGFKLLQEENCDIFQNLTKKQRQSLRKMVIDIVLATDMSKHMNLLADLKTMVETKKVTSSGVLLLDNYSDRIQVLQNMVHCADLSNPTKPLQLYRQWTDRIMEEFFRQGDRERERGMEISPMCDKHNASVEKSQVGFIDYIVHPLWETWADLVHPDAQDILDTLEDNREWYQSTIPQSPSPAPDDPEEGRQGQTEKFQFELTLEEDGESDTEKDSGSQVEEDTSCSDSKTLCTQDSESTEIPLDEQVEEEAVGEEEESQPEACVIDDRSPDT
Sequence of cGMP-inhibited 3',5'-cyclic phosphodiesterase 3B (Homo sapiens) (Q13370 whole entry, looked up): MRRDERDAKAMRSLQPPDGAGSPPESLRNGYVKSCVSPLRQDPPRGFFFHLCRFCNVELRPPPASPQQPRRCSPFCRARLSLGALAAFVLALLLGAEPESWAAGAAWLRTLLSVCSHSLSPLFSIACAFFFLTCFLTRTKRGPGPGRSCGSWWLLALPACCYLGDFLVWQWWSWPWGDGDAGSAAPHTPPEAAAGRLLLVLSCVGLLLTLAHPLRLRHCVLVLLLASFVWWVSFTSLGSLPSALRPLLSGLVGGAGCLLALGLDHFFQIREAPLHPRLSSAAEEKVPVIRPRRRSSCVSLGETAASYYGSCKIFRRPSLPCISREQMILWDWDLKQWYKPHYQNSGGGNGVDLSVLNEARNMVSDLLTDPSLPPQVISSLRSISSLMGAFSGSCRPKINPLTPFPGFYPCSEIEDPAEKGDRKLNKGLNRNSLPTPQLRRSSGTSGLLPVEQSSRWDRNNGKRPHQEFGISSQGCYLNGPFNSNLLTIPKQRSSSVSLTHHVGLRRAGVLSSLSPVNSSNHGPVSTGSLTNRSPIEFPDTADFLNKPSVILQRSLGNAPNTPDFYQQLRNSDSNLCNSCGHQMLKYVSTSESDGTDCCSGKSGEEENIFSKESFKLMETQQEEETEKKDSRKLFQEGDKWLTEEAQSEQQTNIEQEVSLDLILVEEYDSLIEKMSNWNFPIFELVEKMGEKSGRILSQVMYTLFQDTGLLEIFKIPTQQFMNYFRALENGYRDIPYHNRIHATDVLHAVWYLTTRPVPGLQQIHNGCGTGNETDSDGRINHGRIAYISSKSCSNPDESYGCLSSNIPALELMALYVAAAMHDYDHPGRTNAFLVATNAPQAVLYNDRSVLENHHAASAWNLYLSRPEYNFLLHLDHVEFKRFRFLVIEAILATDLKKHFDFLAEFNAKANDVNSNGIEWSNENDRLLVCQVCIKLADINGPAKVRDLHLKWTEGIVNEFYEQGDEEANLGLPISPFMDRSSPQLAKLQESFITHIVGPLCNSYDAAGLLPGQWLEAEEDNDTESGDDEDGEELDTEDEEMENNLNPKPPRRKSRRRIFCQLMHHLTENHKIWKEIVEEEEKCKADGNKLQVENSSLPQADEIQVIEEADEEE
Sequence of High affinity cGMP-specific 3',5'-cyclic phosphodiesterase 9A (Homo sapiens) (O76083 whole entry): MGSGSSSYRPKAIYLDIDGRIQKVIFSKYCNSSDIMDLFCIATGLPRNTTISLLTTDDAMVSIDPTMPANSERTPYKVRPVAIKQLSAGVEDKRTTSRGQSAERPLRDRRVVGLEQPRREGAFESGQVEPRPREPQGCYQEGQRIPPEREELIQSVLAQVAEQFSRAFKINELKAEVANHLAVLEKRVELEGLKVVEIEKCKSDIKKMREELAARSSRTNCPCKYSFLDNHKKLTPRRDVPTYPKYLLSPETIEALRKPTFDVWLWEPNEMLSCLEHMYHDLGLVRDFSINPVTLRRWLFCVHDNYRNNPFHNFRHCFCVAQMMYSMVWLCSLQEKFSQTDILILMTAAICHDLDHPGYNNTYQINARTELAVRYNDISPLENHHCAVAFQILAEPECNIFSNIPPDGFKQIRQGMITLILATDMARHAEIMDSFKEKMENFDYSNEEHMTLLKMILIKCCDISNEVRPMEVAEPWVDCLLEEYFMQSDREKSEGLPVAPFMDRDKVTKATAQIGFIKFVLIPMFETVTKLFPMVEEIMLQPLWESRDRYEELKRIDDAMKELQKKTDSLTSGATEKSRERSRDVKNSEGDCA
Sequence of Dual specificity calcium/calmodulin-dependent 3',5'-cyclic nucleotide phosphodiesterase 1B (Homo sapiens) (Q01064 whole entry): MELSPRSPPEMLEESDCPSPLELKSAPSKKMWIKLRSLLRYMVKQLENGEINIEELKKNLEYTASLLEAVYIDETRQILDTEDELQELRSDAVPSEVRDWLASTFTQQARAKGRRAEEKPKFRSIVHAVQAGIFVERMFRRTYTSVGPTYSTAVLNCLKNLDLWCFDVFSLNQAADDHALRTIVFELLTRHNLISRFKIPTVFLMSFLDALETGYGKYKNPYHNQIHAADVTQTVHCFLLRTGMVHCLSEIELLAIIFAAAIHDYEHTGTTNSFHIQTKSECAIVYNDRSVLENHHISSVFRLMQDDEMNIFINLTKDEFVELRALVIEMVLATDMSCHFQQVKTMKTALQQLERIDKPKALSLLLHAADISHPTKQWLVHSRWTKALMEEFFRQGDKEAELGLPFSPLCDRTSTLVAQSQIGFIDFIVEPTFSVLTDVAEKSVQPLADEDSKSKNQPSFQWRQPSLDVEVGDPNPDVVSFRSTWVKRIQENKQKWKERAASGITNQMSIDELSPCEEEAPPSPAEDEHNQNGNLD

C=CCc1c(-c2cccc(NS(=O)(=O)c3ccc(C(F)(F)F)cc3)c2)oc(=O)c2ccccc12
inhibition [1]: 55.3%

C=CCc1c(-c2cccc(NS(=O)(=O)c3cccs3)c2)oc(=O)c2ccc(Cl)cc12
IC50 [2]: 4.01 µM | inhibition [1]: 75.7%

C=CCc1c(-c2cccc(NS(=O)(=O)c3ccccc3)c2)oc(=O)c2ccccc12
IC50 [2]: 1.24 µM | inhibition [1]: 82.9%

C=CCc1c(-c2cccc(NS(=O)(=O)c3ccc(C)cc3)c2)oc(=O)c2cc(F)ccc12
IC50 [2]: 3.04 µM | inhibition [1]: 79.7%

C=CCc1c(-c2cccc(NS(=O)(=O)c3ccc(OC)cc3)c2)oc(=O)c2ccccc12
IC50 [2]: 3.33 µM | inhibition [1]: 80%

C=CCc1c(-c2cccc(NS(=O)(=O)c3cccs3)c2)oc(=O)c2cc(F)ccc12
Activity (Rattus norvegicus [3]): Active | Activity [4]: Non-Toxic | inhibition [5]: 11% | IC50 [2]: 0.54 µM | Activity (Rattus norvegicus [6]): Active | Ratio IC50 (Homo sapiens): 2.5 | inhibition [7]: 9% | inhibition [8]: 30.9% | inhibition [9]: 2% | Activity (Rattus norvegicus [10]): Active | inhibition [11]: 19% | IC50 (RAW264.7): > 100 µM | Activity (Rattus norvegicus [12]): Active | inhibition [13]: 12% | inhibition [14]: 10% | inhibition [15]: 18% | Activity [16]: Non-Toxic | inhibition [1]: 96% | Activity [17]: Non-Toxic | Activity (Rattus norvegicus [18]): Dose-Dependent Effect | inhibition [19]: 21% | inhibition [20]: 7% | inhibition [21]: 11% | Activity [22]: Non-Toxic | inhibition [23]: 8% | inhibition [24]: 6% | Activity (Rattus norvegicus [25]): Active | inhibition [26]: 8% | inhibition [27]: 40.3% | inhibition [28]: 24% | IC50 [29]: 1.34 µM | Activity (Rattus norvegicus [30]): inactive | inhibition [31]: 65.5% | Activity [32]: Non-Toxic | inhibition [33]: 3% | inhibition [34]: 45.6%

C=CCc1c(-c2cccc(NS(C)(=O)=O)c2)oc(=O)c2ccccc12
inhibition [1]: 55.8%

C=CCc1c(-c2ccc(NS(=O)(=O)c3ccc(C)cc3)cc2)oc(=O)c2cc(F)ccc12
IC50 [2]: 2.36 µM | inhibition [1]: 94%

C=CCc1c(-c2cccc(NS(=O)(=O)c3ccc(C)cc3)c2)oc(=O)c2ccccc12
IC50 [2]: 2.07 µM | inhibition [1]: 77.8%

C=CCc1c(-c2cccc(NC(=O)c3ccccc3)c2)oc(=O)c2cc(F)ccc12
inhibition [1]: 74.6%

C=CCc1c(-c2cccc(NS(C)(=O)=O)c2)oc(=O)c2cc(F)ccc12
IC50 [2]: 1.94 µM | inhibition [1]: 90.9%

C=CCc1c(-c2ccc(NS(=O)(=O)c3ccccc3)cc2)oc(=O)c2ccccc12
IC50 [2]: 3.91 µM | inhibition [1]: 87.6%

C=CCc1c(-c2cccc(NS(C)(=O)=O)c2)oc(=O)c2ccc(Cl)cc12
inhibition [1]: 62.2%

C=CCc1c(-c2ccc(NS(C)(=O)=O)cc2)oc(=O)c2ccccc12
inhibition [1]: 54.9%

COc1ccc(C2CNC(=O)C2)cc1OC1CCCC1 (stereo unspecified)
inhibition [35]: 50.3% | inhibition [1]: 77.2%

C=CCc1c(-c2cccc(NS(=O)(=O)c3cccs3)c2)oc(=O)c2ccccc12
IC50 [2]: 1.76 µM | inhibition [1]: 85.9%

C=CCc1c(-c2cccc(NC(=O)c3ccccc3)c2)oc(=O)c2ccccc12
inhibition [1]: 72.6%

C=CCc1c(-c2ccc(NC(=O)c3ccccc3)cc2)oc(=O)c2ccccc12
inhibition [1]: 46.5%

C=CCc1c(-c2ccc(NS(C)(=O)=O)cc2)oc(=O)c2ccc(Cl)cc12
inhibition [1]: 56%

CN(Cc1cnc2nc(N)nc(N)c2n1)c1ccc(C(=O)N[C@@H](CCC(=O)O)C(=O)O)cc1
Activity (Rattus norvegicus [6]): Active | Activity (Rattus norvegicus [36]): inactive | Activity (Rattus norvegicus [37]): Active

C=CCc1c(-c2cccc(NS(=O)(=O)c3ccccc3)c2)oc(=O)c2cc(F)ccc12
IC50 [2]: 0.43 µM | Ratio IC50 (Homo sapiens): 2 | inhibition [1]: 82.2% | IC50 [29]: 0.9 µM

C=CCc1c(-c2ccc(NS(=O)(=O)c3ccccc3)cc2)oc(=O)c2cc(F)ccc12
IC50 [2]: 1.91 µM | inhibition [1]: 94.4%

C=CCc1c(-c2cccc(NS(=O)(=O)c3ccccc3)c2)oc(=O)c2ccc(Cl)cc12
IC50 [2]: 4.78 µM | inhibition [1]: 81.2%

C=CCc1c(-c2ccc(NS(=O)(=O)c3ccc(C)cc3)cc2)oc(=O)c2ccccc12
inhibition [1]: 63.5%
